# Like-named read-outs stand apart in the source and are kept apart here.
# Experiments:
# [1] = Solubility in distilled water
# Method: The remaining salts (3e-h) were prepared directly from the free acid 10b by treatment with the appropriate base or amino acid. The solubilities of each salt and of precursor 9 were measured in distilled water at room temperature.
# [2] = system: murine P388 lymphocytic leukemia cell line; assay: Murine P388 lymphocytic leukemia cell line growth inhibition; format: cell-based; details: for Activity against P388 (in words): murine P388 lymphocytic leukemia cell line
# lung (NCI-H460) = assay: Human cancer cell line minipanel: NCI-H460; format: cell-based; details: for GI50: read-out: GI50 NCI-H460 (nanomolar value in parentheses)
# pancreas (BXPC-3) = assay: Human cancer cell line minipanel: BXPC-3; format: cell-based; details: for GI50: read-out: GI50 BXPC-3 (nanomolar value in parentheses)
# prostate (DU-145) = assay: Human cancer cell line minipanel: DU-145; format: cell-based; details: for GI50: read-out: GI50 DU-145 (nanomolar value in parentheses)
# breast (MCF-7) = assay: Human cancer cell line minipanel: MCF-7; format: cell-based; details: for GI50: read-out: GI50 MCF-7 (nanomolar value in parentheses)
# [3] = system: minipanel of human cancer cell lines; assay: Minipanel of human cancer cell lines (summary); format: cell-based; details: for GI50 (order of magnitude over the cell lines): summary of cancer cell growth inhibition
# colon (KM20L2) = assay: Human cancer cell line minipanel: KM20L2; format: cell-based; details: for GI50: read-out: GI50 KM20L2 (nanomolar value in parentheses)
# CNS (SF-268) = assay: Human cancer cell line minipanel: SF-268; format: cell-based; details: for GI50: read-out: GI50 SF-268 (nanomolar value in parentheses)
# [4] = Storage stability of the free phosphoric acid; format: physicochemical; details: storable for short periods as methanolic solution (<0.01 M at 4° C.)
# From the text: The most soluble were the sodium (3b) and potassium (3c) salts (Table 2).
# [5] = murine lymphocytic leukemia (P388)
# [6] = murine lymphocytic leukemia (P388), read-out: ED50 P388 (nanomolar value in parentheses)
compound,measurement,setting,value
"CC[C@H](C)[C@@H]([C@@H](CC(=O)N1CCC[C@H]1[C@H](OC)[C@@H](C)C(=O)NCCc1ccc(OP(=O)([O-])[O-])cc1)OC)N(C)C(=O)[C@@H](NC(=O)[C@H](C(C)C)N(C)C)C(C)C.[Li+].[Li+] [Compound 3a, Lithium Auristatin TP]",Solubility,[1]; in distilled water at 23° C.,>65 mg/mL
"CC[C@H](C)[C@@H]([C@@H](CC(=O)N1CCC[C@H]1[C@H](OC)[C@@H](C)C(=O)NCCc1ccc(O)cc1)OC)N(C)C(=O)[C@@H](NC(=O)[C@H](C(C)C)N(C)C)C(C)C [Compound 9, Dov-Val-Dil-Dap-4-hydroxyphenethylamide]",Solubility,[1],<1 mg/mL
same,EC50,"[2]; Mus musculus, P388, read-out: ED50 P388 (nanomolar value in parentheses)",5 nM
same,Activity against P388 (in words),[2],exceptional activity
same,ED50 P388,[2]; [5],3.6 ng/mL
"CC[C@H](C)[C@@H]([C@@H](CC(=O)N1CCC[C@H]1[C@H](OC)[C@@H](C)C(=O)NCCc1ccc(OP(=O)(O)O)cc1)OC)N(C)C(=O)[C@@H](NC(=O)[C@H](C(C)C)N(C)C)C(C)C.NC(CO)(CO)CO [Compound 3f, TRIS Auristatin TP]",Solubility,[1]; in distilled water at 23° C.,>51 mg/mL
"C1COCCN1.CC[C@H](C)[C@@H]([C@@H](CC(=O)N1CCC[C@H]1[C@H](OC)[C@@H](C)C(=O)NCCc1ccc(OP(=O)(O)O)cc1)OC)N(C)C(=O)[C@@H](NC(=O)[C@H](C(C)C)N(C)C)C(C)C [Compound 3d, Morpholine Auristatin TP]",Solubility,[1]; in distilled water at 23° C.,>72 mg/mL
"CC[C@H](C)[C@@H]([C@@H](CC(=O)N1CCC[C@H]1[C@H](OC)[C@@H](C)C(=O)NCCc1ccc(OP(=O)([O-])[O-])cc1)OC)N(C)C(=O)[C@@H](NC(=O)[C@H](C(C)C)N(C)C)C(C)C.[K+].[K+] [Compound 3c, Potassium Auristatin TP]",Solubility,[1]; in distilled water at 23° C.,>120 mg/mL
same,Activity against P388 (in words),[2],exceptional activity
same,ED50 P388,[2]; [5],7.6 ng/mL
same,EC50,[2]; [6],8.7 nM
Dov-Val-Dil-Dap-2-aminoquinoline [Compound 4],GI50 NCI-H460,lung (NCI-H460),16 ng/mL
same,GI50,lung (NCI-H460),22.1 nM
same,GI50 BXPC-3,pancreas (BXPC-3),29 ng/mL
same,GI50,pancreas (BXPC-3),40.1 nM
same,GI50 DU-145,prostate (DU-145),23 ng/mL
same,GI50,prostate (DU-145),31.8 nM
same,GI50 MCF-7,breast (MCF-7),4.6 ng/mL
same,GI50,breast (MCF-7),6.35 nM
same,Activity against P388 (in words),[2],exceptional activity
same,ED50 P388,[2]; [5],31 ng/mL
same,EC50,[2]; [6],42.8 nM
same,Activity against minipanel of human cancer cell lines (in words),[3],similarly strong activity
same,GI50 (order of magnitude over the cell lines),[3],10^−2-10^−3 μg/mL
same,GI50 KM20L2,colon (KM20L2),7.7 ng/mL
same,GI50,colon (KM20L2),10.6 nM
same,GI50 SF-268,CNS (SF-268),29 ng/mL
same,GI50,CNS (SF-268),40.1 nM
"CC[C@H](C)[C@@H]([C@@H](CC(=O)N1CCC[C@H]1[C@H](OC)[C@@H](C)C(=O)Nc1ccc2ncccc2c1)OC)N(C)C(=O)[C@@H](NC(=O)[C@H](C(C)C)N(C)C)C(C)C [Compound 5, Dov-Val-Dil-Dap-6-aminoquinoline]",GI50 NCI-H460,lung (NCI-H460),0.36 ng/mL
same,GI50,lung (NCI-H460),0.5 nM
same,GI50 BXPC-3,pancreas (BXPC-3),0.31 ng/mL
same,GI50,pancreas (BXPC-3),0.43 nM
same,GI50 DU-145,prostate (DU-145),0.3 ng/mL
same,GI50,prostate (DU-145),0.41 nM
same,GI50 MCF-7,breast (MCF-7),0.14 ng/mL
same,GI50,breast (MCF-7),0.19 nM
same,Activity against P388 (in words),[2],exceptional activity
same,ED50 P388,[2]; [5],2.6 ng/mL
same,EC50,[2]; [6],3.59 nM
same,Activity against minipanel of human cancer cell lines (in words),[3],similarly strong activity
same,GI50 (order of magnitude over the cell lines),[3],10^−4 μg/mL
same,GI50 KM20L2,colon (KM20L2),0.25 ng/mL
same,GI50,colon (KM20L2),0.35 nM
same,GI50 SF-268,CNS (SF-268),0.16 ng/mL
same,GI50,CNS (SF-268),0.22 nM
"CCC(C)C(C(CC(=O)N1CCCC1C(OC)C(C)C(=O)NCCc1ccc(OP(=O)(O)O)cc1)OC)N(C)C(=O)C(NC(=O)C(C(C)C)N(C)C)C(C)C (stereo not drawn) [Compound 10b, Dov-Val-Dil-Dap-4-(dihydrophosphoryloxy)phenethylamide]",Stability of the pure substance (in words),[4],quite unstable
Sodium Auristatin TP [Compound 3b],Solubility,[1]; in distilled water at 23° C.,>236 mg/mL
same,GI50 NCI-H460,lung (NCI-H460),0.88 ng/mL
same,GI50,lung (NCI-H460),1.05 nM
same,GI50 BXPC-3,pancreas (BXPC-3),46 ng/mL
same,GI50,pancreas (BXPC-3),54.6 nM
same,GI50 DU-145,prostate (DU-145),0.54 ng/mL
same,GI50,prostate (DU-145),0.64 nM
same,GI50 MCF-7,breast (MCF-7),0.68 ng/mL
same,GI50,breast (MCF-7),0.81 nM
same,Activity against P388 (in words),[2],exceptional activity
same,ED50 P388,[2]; [5],<1 ng/mL
same,EC50,[2]; [6],< 1.2 nM
same,Activity against minipanel of human cancer cell lines (in words),[3],similarly strong activity
same,GI50 (order of magnitude over the cell lines),[3],10^−2-10^−4 μg/mL
same,GI50 KM20L2,colon (KM20L2),0.61 ng/mL
same,GI50,colon (KM20L2),0.72 nM
same,GI50 SF-268,CNS (SF-268),1.25 ng/mL
same,GI50,CNS (SF-268),1.48 nM
